# Measured values published in the supplement of paper PMC10307832.
# How the values were obtained:
# Experiment in all cases: relative viability (nuclei count vs DMSO), 5 days (fraction); higher = more cells survive
# [1] = compound: O=C(Nc1cccc(C(F)(F)F)c1)Nc1cc(S(=O)(=O)NC2CC2)ccc1-c1ccsc1 [AGI-6780]
# Procedure, shortened: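 Lung cancer cell lines in 1536-well plates were kept overnight at 37 °C, then pinned with five library-drug doses (not always all listed) spaced by √10 on vehicle-anchored plates. After 5 days without medium change, cells were fixed, permeabilised and Hoechst-stained in one step, imaged at 4×, and nuclei were counted with MetaXpress. Viability is treated-well nuclei divided by vehicle-well nuclei, taken as the median over plates. Plates passed only with control CV below 25% and at least one doubling.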
# [2] = compound: O=C(Nc1cccc(C(F)(F)F)c1)Nc1cc(S(=O)(=O)NC2CC2)ccc1-c1ccsc1 [AGI-6780] + CCNC(=O)c1noc(-c2cc(C(C)C)c(O)cc2O)c1-c1ccc(CN2CCOCC2)cc1 [Luminespib] (partner 0.01 µM)
# Procedure, shortened: (§1)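 Dosing by pin tool came one day after lung cancer cell lines were seeded in 1536-well plates, using either one drug or a fixed anchor-drug dose plus five library-drug doses (not always all listed) in √10 steps. After 5 days, nuclei were counted on 4× images. Relative viability is treated-well nuclei count divided by vehicle-well nuclei count, and values are medians of duplicate plates.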
# [3] = compound: O=C(Nc1cccc(C(F)(F)F)c1)Nc1cc(S(=O)(=O)NC2CC2)ccc1-c1ccsc1 [AGI-6780] + COc1cc2c(Oc3ccc(NC(=O)C4(C(=O)Nc5ccc(F)cc5)CC4)cc3F)ccnc2cc1OCCCN1CCOCC1 [Foretinib] (partner 0.25 µM)
# Procedure, shortened: as §1
# [4] = compound: O=C(Nc1cccc(C(F)(F)F)c1)Nc1cc(S(=O)(=O)NC2CC2)ccc1-c1ccsc1 [AGI-6780] + COc1cccc2cc(-c3nc([C@H]4CC[C@H](C(=O)O)CC4)n4ncnc(N)c34)[nH]c12 [OSI-027] (partner 0.5 µM)
# Procedure, shortened: as §1
# [5] = compound: O=C(Nc1cccc(C(F)(F)F)c1)Nc1cc(S(=O)(=O)NC2CC2)ccc1-c1ccsc1 [AGI-6780] + Cc1cc(Nc2cc(N3CCN(C)CC3)nc(Sc3ccc(NC(=O)C4CC4)cc3)n2)n[nH]1 [Tozasertib] (partner 0.1 µM)
# Procedure, shortened: as §1
# [6] = compound: O=C(Nc1cccc(C(F)(F)F)c1)Nc1cc(S(=O)(=O)NC2CC2)ccc1-c1ccsc1 [AGI-6780] + Cc1nc(Nc2ncc(C(=O)Nc3c(C)cccc3Cl)s2)cc(N2CCN(CCO)CC2)n1 [Dasatinib] (partner 0.075 µM)
# Procedure, shortened: as §1
# [7] = compound: O=C(Nc1cccc(C(F)(F)F)c1)Nc1cc(S(=O)(=O)NC2CC2)ccc1-c1ccsc1 [AGI-6780] + N=C(N)NC(=N)NCCc1ccccc1 [Phenformin] (partner 250 µM)
# Procedure, shortened: as §1
# [8] = compound: O=C(Nc1cccc(C(F)(F)F)c1)Nc1cc(S(=O)(=O)NC2CC2)ccc1-c1ccsc1 [AGI-6780] + CC(=O)Nc1cccc(-n2c(=O)n(C3CC3)c(=O)c3c(Nc4ccc(I)cc4F)n(C)c(=O)c(C)c32)c1 [Trametinib] (partner 0.02 µM)
# Procedure, shortened: as §1
# [9] = compound: O=C(Nc1cccc(C(F)(F)F)c1)Nc1cc(S(=O)(=O)NC2CC2)ccc1-c1ccsc1 [AGI-6780] + CC(=O)c1c(C)c2cnc(Nc3ccc(N4CCNCC4)cn3)nc2n(C2CCCC2)c1=O [Palbociclib] (partner 0.5 µM)
# Procedure, shortened: as §1
# [10] = compound: O=C(Nc1cccc(C(F)(F)F)c1)Nc1cc(S(=O)(=O)NC2CC2)ccc1-c1ccsc1 [AGI-6780] + NC(=O)Nc1cc(-c2cccc(F)c2)sc1C(=O)N[C@H]1CCCNC1 [AZD7762] (partner 0.2 µM)
# Procedure, shortened: as §1
# [11] = compound: O=C(Nc1cccc(C(F)(F)F)c1)Nc1cc(S(=O)(=O)NC2CC2)ccc1-c1ccsc1 [AGI-6780] + Nc1nc2[nH]cc(CCc3ccc(C(=O)N[C@@H](CCC(=O)O)C(=O)O)cc3)c2c(=O)[nH]1 [Pemetrexed] (partner 0.2 µM)
# Procedure, shortened: as §1
# [12] = compound: O=C(Nc1cccc(C(F)(F)F)c1)Nc1cc(S(=O)(=O)NC2CC2)ccc1-c1ccsc1 [AGI-6780] + Nc1ncn([C@H]2C[C@H](O)[C@@H](CO)O2)c(=O)n1 [Decitabine] (partner 2 µM)
# Procedure, shortened: as §1
# [13] = compound: O=C(Nc1cccc(C(F)(F)F)c1)Nc1cc(S(=O)(=O)NC2CC2)ccc1-c1ccsc1 [AGI-6780] + O=C(CCCCCCC(=O)Nc1ccccc1)NO [Vorinostat] (partner 1 µM)
# Procedure, shortened: as §1
# [14] = compound: O=C(Nc1cccc(C(F)(F)F)c1)Nc1cc(S(=O)(=O)NC2CC2)ccc1-c1ccsc1 [AGI-6780] + O=C(c1cc(Cc2n[nH]c(=O)c3ccccc23)ccc1F)N1CCN(C(=O)C2CC2)CC1 [Olaparib] (partner 8 µM)
# Procedure, shortened: as §1
cell line,measurement,setting,value
NCI-H1623,relative viability,[1]; 0.08 µM,0.967
same,relative viability,[1]; 0.253 µM,0.953
same,relative viability,[1]; 0.8 µM,0.977
same,relative viability,[1]; 2.53 µM,0.681
same,relative viability,[1]; 8 µM,0.949
same,relative viability,[2]; first compound 0.08 µM,0.489
same,relative viability,[2]; first compound 0.253 µM,0.483
same,relative viability,[2]; first compound 0.8 µM,0.575
same,relative viability,[2]; first compound 2.53 µM,0.381
same,relative viability,[2]; first compound 8 µM,0.463
same,relative viability,[3]; first compound 0.08 µM,0.789
same,relative viability,[3]; first compound 0.253 µM,0.856
same,relative viability,[3]; first compound 0.8 µM,0.976
same,relative viability,[3]; first compound 2.53 µM,0.721
same,relative viability,[3]; first compound 8 µM,0.887
same,relative viability,[4]; first compound 0.08 µM,0.537
same,relative viability,[4]; first compound 0.253 µM,0.453
same,relative viability,[4]; first compound 0.8 µM,0.454
same,relative viability,[4]; first compound 2.53 µM,0.374
same,relative viability,[4]; first compound 8 µM,0.396
same,relative viability,[5]; first compound 0.08 µM,0.47
same,relative viability,[5]; first compound 0.253 µM,0.519
same,relative viability,[5]; first compound 0.8 µM,0.474
same,relative viability,[5]; first compound 2.53 µM,0.391
same,relative viability,[5]; first compound 8 µM,0.409
same,relative viability,[6]; first compound 0.08 µM,0.484
same,relative viability,[6]; first compound 0.253 µM,0.553
same,relative viability,[6]; first compound 0.8 µM,0.619
same,relative viability,[6]; first compound 2.53 µM,0.477
same,relative viability,[6]; first compound 8 µM,0.489
same,relative viability,[7]; first compound 0.08 µM,0.561
same,relative viability,[7]; first compound 0.253 µM,0.604
same,relative viability,[7]; first compound 0.8 µM,0.609
same,relative viability,[7]; first compound 2.53 µM,0.508
same,relative viability,[7]; first compound 8 µM,0.518
SW 900,relative viability,[1]; 0.08 µM,0.858
same,relative viability,[1]; 0.253 µM,0.868
same,relative viability,[1]; 0.8 µM,1.08
same,relative viability,[1]; 2.53 µM,0.901
same,relative viability,[1]; 8 µM,0.935
same,relative viability,[8]; first compound 0.08 µM,1.01
same,relative viability,[8]; first compound 0.253 µM,0.832
same,relative viability,[8]; first compound 0.8 µM,0.915
same,relative viability,[8]; first compound 2.53 µM,0.688
same,relative viability,[8]; first compound 8 µM,1.18
same,relative viability,[9]; first compound 0.08 µM,0.629
same,relative viability,[9]; first compound 0.253 µM,0.527
same,relative viability,[9]; first compound 0.8 µM,0.496
same,relative viability,[9]; first compound 2.53 µM,0.566
same,relative viability,[9]; first compound 8 µM,0.552
same,relative viability,[2]; first compound 0.08 µM,0.167
same,relative viability,[2]; first compound 0.253 µM,0.17
same,relative viability,[2]; first compound 0.8 µM,0.163
same,relative viability,[2]; first compound 2.53 µM,0.185
same,relative viability,[2]; first compound 8 µM,0.176
same,relative viability,[3]; first compound 0.08 µM,0.953
same,relative viability,[3]; first compound 0.253 µM,0.763
same,relative viability,[3]; first compound 0.8 µM,1.03
same,relative viability,[3]; first compound 2.53 µM,0.81
same,relative viability,[3]; first compound 8 µM,0.917
same,relative viability,[4]; first compound 0.08 µM,0.649
same,relative viability,[4]; first compound 0.253 µM,0.684
same,relative viability,[4]; first compound 0.8 µM,0.811
same,relative viability,[4]; first compound 2.53 µM,0.415
same,relative viability,[4]; first compound 8 µM,0.741
same,relative viability,[5]; first compound 0.08 µM,0.526
same,relative viability,[5]; first compound 0.253 µM,0.52
same,relative viability,[5]; first compound 0.8 µM,0.644
same,relative viability,[5]; first compound 2.53 µM,0.473
same,relative viability,[5]; first compound 8 µM,0.512
same,relative viability,[6]; first compound 0.08 µM,0.542
same,relative viability,[6]; first compound 0.253 µM,0.675
same,relative viability,[6]; first compound 0.8 µM,0.555
same,relative viability,[6]; first compound 2.53 µM,0.587
same,relative viability,[6]; first compound 8 µM,0.571
same,relative viability,[7]; first compound 0.08 µM,0.547
same,relative viability,[7]; first compound 0.253 µM,0.737
same,relative viability,[7]; first compound 0.8 µM,0.673
same,relative viability,[7]; first compound 2.53 µM,0.597
same,relative viability,[7]; first compound 8 µM,0.809
same,relative viability,[10]; first compound 0.08 µM,0.657
same,relative viability,[10]; first compound 0.253 µM,0.676
same,relative viability,[10]; first compound 0.8 µM,0.811
same,relative viability,[10]; first compound 2.53 µM,0.557
same,relative viability,[10]; first compound 8 µM,0.634
same,relative viability,[11]; first compound 0.08 µM,0.461
same,relative viability,[11]; first compound 0.253 µM,0.484
same,relative viability,[11]; first compound 0.8 µM,0.457
same,relative viability,[11]; first compound 2.53 µM,0.524
same,relative viability,[11]; first compound 8 µM,0.469
same,relative viability,[12]; first compound 0.08 µM,0.454
same,relative viability,[12]; first compound 0.253 µM,0.454
same,relative viability,[12]; first compound 0.8 µM,0.386
same,relative viability,[12]; first compound 2.53 µM,0.413
same,relative viability,[12]; first compound 8 µM,0.445
same,relative viability,[13]; first compound 0.08 µM,0.485
same,relative viability,[13]; first compound 0.253 µM,0.484
same,relative viability,[13]; first compound 0.8 µM,0.707
same,relative viability,[13]; first compound 2.53 µM,0.548
same,relative viability,[13]; first compound 8 µM,0.586
same,relative viability,[14]; first compound 0.08 µM,0.741
same,relative viability,[14]; first compound 0.253 µM,0.826
same,relative viability,[14]; first compound 0.8 µM,0.923
same,relative viability,[14]; first compound 2.53 µM,0.878
same,relative viability,[14]; first compound 8 µM,0.803
